The source of these data is patent publication US11464770B2, “Anticancer pharmaceutical composition” (NATIONAL CANCER CENTER, priority 2016, dated 2022).

In one assay the test system is brain cancer cell lines. The assay can be described thus: Cell based assay, cell viability (CellTiter-Glo), brain cancer cell lines. Conditions: Homo sapiens. (In general: In ATP-based viability assays light output follows the ATP content of the culture.)
For assay [1], the system named is cervical carcinoma cell lines. The assay can be described thus: Cell based assay, cell viability (CellTiter-Glo), cervical carcinoma cell lines. The following applies: Homo sapiens; HeLa cells.
In assay [2] the test system is blood cancer cell lines (e.g. HL-60, Jurkat, Raji, Ramos, Daudi, MOLT-4). The experiment in a line: Cell based assay, cell viability (CellTiter-Glo), blood cancer cell lines. Conditions: Homo sapiens. In outline: (§1)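 Luminescent ATP assay quantified surviving cells after three days of treatment. Compound was applied at final concentrations of 0 to 2 μM, starting 24 h after cells were seeded.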

The test system of assay [3] is pancreatic cancer cell lines (e.g. MIA PaCa-2). The assay can be described thus: Cell based assay, cell viability (CellTiter-Glo), pancreatic cancer cell lines. Conditions: Homo sapiens. In outline:
as §1

A further assay deals with renal cancer cell lines. The experiment in a line: Cell based assay, cell viability (CellTiter-Glo), renal cancer cell lines. The following applies: Homo sapiens; ACHN cells. In outline:
as §1

[4] abbreviates: U138-MG, U-138 MG cell line, read-out: IC50, Brain cancer cell line U-138 MG.
Setting [5] is: T98G cell line, read-out: IC50, Brain cancer cell line T98G.
The mark [6] stands for this setting: U-251 MG cell line, read-out: IC50, Brain cancer cell line U-251 MG.
[7] abbreviates: MV4-11, blood cancer cell line MV-4-11, 72 hours, read-out: IC50, MV-4-11.
Setting [8] is: blood cancer cell line Daudi, 72 hours, read-out: IC50, Daudi.
The mark [9] stands for this setting: blood cancer cell line HL-60, 72 hours, read-out: IC50, HL-60.
The mark [10] stands for this setting: blood cancer cell line Jurkat, 72 hours, read-out: IC50, Jurkat.
Where [11] appears, read: blood cancer cell line MOLT-4, 72 hours, read-out: IC50, MOLT-4.
Where [12] appears, read: blood cancer cell line Raji, 72 hours, read-out: IC50, Raji.
Where [13] appears, read: blood cancer cell line Ramos (RA 1), 72 hours, read-out: IC50, Ramos (RA 1).
[14] abbreviates: blood cancer cell line U-937, 72 hours, read-out: IC50, U-937.
Setting [15] is: pancreatic cancer cell line AsPC-1, 72 hours, read-out: IC50, AsPC-1.
Where [16] appears, read: pancreatic cancer cell line BxPC-3, 72 hours, read-out: IC50, BxPC-3.
[17] abbreviates: pancreatic cancer cell line CFPAC-1, 72 hours, read-out: IC50, CFPAC-1.
Where [18] appears, read: pancreatic cancer cell line Capan-1, 72 hours, read-out: IC50, Capan-1.
Where [19] appears, read: pancreatic cancer cell line Capan-2, 72 hours, read-out: IC50, Capan-2.
Where [20] appears, read: pancreatic cancer cell line MIA PaCa-2, 72 hours, read-out: IC50, MIA PaCa-2.
Setting [21] is: pancreatic cancer cell line PANC-1, 72 hours, read-out: IC50, PANC-1.

Like-named read-outs stand apart in the source and are kept apart here.

Usually IC50 stands for the point on the concentration scale where inhibition reaches its midpoint.

With `CSc1c(C(C)=O)c(=O)c2c(Cl)ccc(Br)c2n1S(=O)(=O)c1ccc(C(C)(C)C)cc1` [Compound 40, 3-acetyl-8-bromo-1-((4-(tert-butyl)phenyl)sulfonyl)-5-chloro-2-(methylthio)quinolin-4(1H)-one], the 50% inhibitory concentration (IC50) in the assay on brain cancer cell lines (setting [4]) was over 10 µM; in the assay with brain cancer cell lines (setting [5]) it was over 10 µM; with brain cancer cell lines (setting [6]) it was over 2 µM; in assay [1], over 10 µM; in assay [2] (setting [7]), over 2 µM; in assay [2] (setting [8]), over 2 µM. Moreover, the half-inhibitory concentration (IC50) in assay [2] (setting [9]), in assay [2] (setting [10]), in assay [2] (setting [11]), in assay [2] (setting [12]), in assay [2] (setting [13]) and in assay [2] (setting [14]) was over 2 µM throughout. Further, the IC50 was over 2 µM in assay [3] (setting [15]); over 2 µM in assay [3] (setting [16]); over 10 µM in assay [3] (setting [17]); over 2 µM in assay [3] (setting [18]); over 2 µM in assay [3] (setting [19]); over 2 µM in assay [3] (setting [20]). For the same molecule, the half-maximal inhibitory concentration (IC50) (in assay [3] (setting [21]); in the assay on renal cancer cell lines) was over 2 µM in each case.
As to `CC(=O)c1c(S(C)(=O)=O)n(S(=O)(=O)c2ccc(C(C)(C)C)cc2)c2c(Br)ccc(Cl)c2c1=O` [Compound 41, 3-acetyl-8-bromo-1-((4-(tert-butyl)phenyl)sulfonyl)-5-chloro-2-(methylsulfonyl)quinolin-4(1H)-one], the IC50 in the assay on brain cancer cell lines (setting [4]) was over 10 µM; in the assay on brain cancer cell lines (setting [5]), over 10 µM; in the assay with brain cancer cell lines (setting [6]), over 2 µM; in assay [1] it was over 10 µM; in assay [2] (setting [7]), over 2 µM; in assay [2] (setting [8]) it was over 2 µM. Further, the IC50 in assay [2] (setting [9]), in assay [2] (setting [10]), in assay [2] (setting [11]), in assay [2] (setting [12]), in assay [2] (setting [13]) and in assay [2] (setting [14]) was over 2 µM each time. The 50% inhibitory concentration (IC50) in assay [3] (setting [15]) is over 2 µM; in assay [3] (setting [16]) it was over 2 µM; in assay [3] (setting [17]) it was over 10 µM; in assay [3] (setting [18]), over 2 µM; in assay [3] (setting [19]), over 2 µM; in assay [3] (setting [20]) it was over 2 µM. Further, the IC50 (in assay [3] (setting [21]); in the assay on renal cancer cell lines) was over 2 µM in each case.
As for `CC(=O)c1c([S+](C)[O-])n(S(=O)(=O)c2ccc(C(C)(C)C)cc2)c2c(Br)ccc(Cl)c2c1=O` (stereo not shown) [Compound 42, 3-acetyl-8-bromo-1-((4-(tert-butyl)phenyl)sulfonyl)-5-chloro-2-(methylsulfinyl)quinolin-4(1H)-one], the IC50 in the assay on brain cancer cell lines (setting [4]) was over 2 µM; in the assay with brain cancer cell lines (setting [5]), over 10 µM; with brain cancer cell lines (setting [6]), over 2 µM; in assay [1], over 10 µM; in assay [2] (setting [7]), over 2 µM; in assay [2] (setting [8]), over 2 µM. Further, the IC50 in assay [2] (setting [9]), in assay [2] (setting [10]), in assay [2] (setting [11]), in assay [2] (setting [12]), in assay [2] (setting [13]) and in assay [2] (setting [14]) was over 2 µM throughout. Besides, the IC50 was over 2 µM in assay [3] (setting [15]); over 2 µM in assay [3] (setting [16]); over 10 µM in assay [3] (setting [17]); over 2 µM in assay [3] (setting [18]); over 2 µM in assay [3] (setting [19]); over 2 µM in assay [3] (setting [20]). The IC50 (in assay [3] (setting [21]); in the assay with renal cancer cell lines) was over 2 µM throughout.
Turning to `CC(=O)c1c(SCc2cc(Cl)ccc2Cl)[nH]c2c(Br)ccc(Cl)c2c1=O` [Compound 43, 3-acetyl-8-bromo-5-chloro-2-((2,5-dichlorobenzyl)thio)quinolin-4(1H)-one], the IC50 with brain cancer cell lines (setting [4]) was over 10 µM; with brain cancer cell lines (setting [5]), over 10 µM; in the assay on brain cancer cell lines (setting [6]) it was over 2 µM; in assay [1] it was over 10 µM; in assay [2] (setting [7]), over 2 µM; in assay [2] (setting [8]) it was over 2 µM. Besides, the concentration for half-maximal inhibition (IC50) in assay [2] (setting [9]), in assay [2] (setting [10]), in assay [2] (setting [11]), in assay [2] (setting [12]), in assay [2] (setting [13]) and in assay [2] (setting [14]) was over 2 µM each time. Further, the IC50 in assay [3] (setting [15]) is over 2 µM; in assay [3] (setting [16]), over 2 µM; in assay [3] (setting [17]) it was over 10 µM; in assay [3] (setting [18]) it was over 2 µM; in assay [3] (setting [19]), over 2 µM; in assay [3] (setting [20]) it was over 2 µM. For the same molecule, the IC50 (in assay [3] (setting [21]); with renal cancer cell lines) was over 2 µM throughout.
With `CC(=O)c1c(SCc2cc(F)cc(F)c2)[nH]c2c(Br)ccc(Cl)c2c1=O` [Compound 45, 3-acetyl-8-bromo-5-chloro-2-((3,5-difluorobenzyl)thio)quinolin-4(1H)-one], the half-inhibitory concentration (IC50) is over 10 µM with brain cancer cell lines (setting [4]); over 10 µM in the assay on brain cancer cell lines (setting [5]); over 2 µM with brain cancer cell lines (setting [6]); over 10 µM in assay [1]; over 2 µM in assay [2] (setting [7]); over 2 µM in assay [2] (setting [8]). Further, the IC50 in assay [2] (setting [9]), in assay [2] (setting [10]), in assay [2] (setting [11]), in assay [2] (setting [12]), in assay [2] (setting [13]) and in assay [2] (setting [14]) was over 2 µM in each case. Moreover, the IC50 in assay [3] (setting [15]) is over 2 µM; in assay [3] (setting [16]) it was over 2 µM; in assay [3] (setting [17]) it was over 10 µM; in assay [3] (setting [18]), over 2 µM; in assay [3] (setting [19]), over 2 µM; in assay [3] (setting [20]), over 2 µM. The concentration for half-maximal inhibition (IC50) (in assay [3] (setting [21]); with renal cancer cell lines) was over 2 µM in each case.
